Reference: US6495572B1, “Synergistic mixtures of an amino acid” (Agrogene Ltd., priority 1997, dated 2002)

What was measured:
Format in all cases: in vivo, Erysiphe graminis
[1] = tested on: powdery mildew in wheat; assay: Control of powdery mildew on potted wheat plants in growth chamber; set-up: ED90: unit not given beside the values; details: for Observed Control (%): wheat
Procedure: (§1) β Amionbutyric acid and component (b) fungicides were tested against fungi on potted plants, as follows:
(§2) 12-15 seeds were sown in a pot of 0.5 liter in a mixture of ground, sand, and Perlite in a ratio of 1;1;1. After two weeks in a growth chamber the plants were used for experimentation only when the first true leave appeared. Spraying was done until runoff; waiting in the growth chamber for 24 hours. Inoculations of the fungus was done via dusting the plants with plants already infected. The then dusted plants were incubated 7 to 10 days at 20° in a growth chamber with an exposure of 12 hours to light at an intensity of 7000-800 lucs. The results of the fungul growth was done via visual estimation (0 to 4) of the infected leaves. The existence of synergism between the active components was calculated according to the Abbott Equation. [formula]
(§3) a=% control b the β-arninobutyric acid.
(§4) b=% control by the second component.
(§5) and where the synergism factor. SF is calculated thusly [formula]

[2] = tested on: powdery mildew in cucumber; assay: Control of powdery mildew on potted cucumber plants in growth chamber; details: for Observed Control (%): cucumber
Procedure: as §1, §2, §3, §4, §5

[3] = tested on: powdery mildew in barley; assay: Control of powdery mildew on potted barley plants in growth chamber
Procedure: as §1, §2, §3, §4, §5

## Fc1ccc([C@]2(Cn3cncn3)O[C@H]2c2ccccc2Cl)cc1 (racemic) [Epoxiconazole, epoxiconazole]
[1]; wheat (Table 6)
  ED90: 0.5
[1]; Epoxiconazole 0.15 ppm alone
  Observed Control (%): 25%
[1]; Epoxiconazole 0.6 ppm alone
  Observed Control (%): 98%
[1]; Epoxiconazole 2.5 ppm alone
  Observed Control (%): 100%
[1]; Epoxiconazole 10 ppm alone
  Observed Control (%): 100%
[2]; cucumber (Table 9)
  ED90: 5.5
[2]; Epoxiconazole 2.5 ppm alone
  Observed Control (%): 60%
[2]; Epoxiconazole 5 ppm alone
  Observed Control (%): 96%
[2]; Epoxiconazole 10 ppm alone
  Observed Control (%): 96%
[2]; Epoxiconazole 20 ppm alone
  Observed Control (%): 100%

## CCCN(CCOc1c(Cl)cc(Cl)cc1Cl)C(=O)n1ccnc1 [Prochloraz, prochloraz]
[3]; Prochloraz 1.25 ppm alone
  Observed Control (%): 43%
[3]; Prochloraz 5 ppm alone
  Observed Control (%): 67%
[3]; Prochloraz 10 ppm alone
  Observed Control (%): 74%
[1]; Prochloraz 1.25 ppm alone
  Observed Control (%): 33%
[1]; Prochloraz 5 ppm alone
  Observed Control (%): 42%
[1]; Prochloraz 10 ppm alone
  Observed Control (%): 52%

## CCCC1COC(Cn2cncn2)(c2ccc(Cl)cc2Cl)O1 (stereo not shown) [Propiconazole, propiconazole]
[3]; Propiconazole 0.5 ppm alone
  Observed Control (%): 75%
[3]; Propiconazole 1 ppm alone
  Observed Control (%): 88%
[3]; Propiconazole 2 ppm alone
  Observed Control (%): 94%
[1]; Propiconazole 0.5 ppm alone
  Observed Control (%): 25%
[1]; Propiconazole 1 ppm alone
  Observed Control (%): 50%
[1]; Propiconazole 2 ppm alone
  Observed Control (%): 83%

## CC(C)(C)C(O)(CCc1ccc(Cl)cc1)Cn1cncn1 (stereo not shown) [Tebuconazole, tebuconazole]
[1]; wheat (Table 5)
  ED90: 1.0
[1]; Tebuconazole 0.15 ppm alone
  Observed Control (%): 25%
[1]; Tebuconazole 0.6 ppm alone
  Observed Control (%): 63%
[1]; Tebuconazole 2.5 ppm alone
  Observed Control (%): 100%
[1]; Tebuconazole 10 ppm alone
  Observed Control (%): 100%
[2]; cucumber (Table 8)
  ED90: 14
[2]; Tebuconazole 2.5 ppm alone
  Observed Control (%): 0%
[2]; Tebuconazole 5 ppm alone
  Observed Control (%): 80%
[2]; Tebuconazole 10 ppm alone
  Observed Control (%): 80%
[2]; Tebuconazole 20 ppm alone
  Observed Control (%): 92%

## CC(C)(C)C(O)C(Oc1ccc(Cl)cc1)n1cncn1 (stereo not shown) [Triadimenol, triadimenol]
[1]; wheat (Table 7)
  ED90: 1.0
[1]; Triadimenol 0.15 ppm alone
  Observed Control (%): 25%
[1]; Triadimenol 0.6 ppm alone
  Observed Control (%): 98%
[1]; Triadimenol 2.5 ppm alone
  Observed Control (%): 100%
[1]; Triadimenol 10 ppm alone
  Observed Control (%): 100%
[2]; cucumber (Table 10)
  ED90: 9.4
[2]; Triadimenol 2.5 ppm alone
  Observed Control (%): 60%
[2]; Triadimenol 5 ppm alone
  Observed Control (%): 88%
[2]; Triadimenol 10 ppm alone
  Observed Control (%): 96%
[2]; Triadimenol 20 ppm alone
  Observed Control (%): 96%

## CC(N)CC(=O)O (stereo not drawn) [β-Aminobutyric acid, β-aminobutyric acid]
[3]; BABA 16 ppm alone (Table 3)
  Observed Control (%): 0%
[3]; BABA 62 ppm alone (Table 3)
  Observed Control (%): 50%
[3]; BABA 125 ppm alone (Table 1)
  Observed Control (%): 14%
[3]; BABA 250 ppm alone (Table 1)
  Observed Control (%): 14%
[3]; BABA 250 ppm alone (Table 3)
  Observed Control (%): 38%
[3]; BABA 500 ppm alone (Table 1)
  Observed Control (%): 14%
[3]; BABA 1000 ppm alone (Table 1)
  Observed Control (%): 14%
[3]; BABA 1000 ppm alone (Table 3)
  Observed Control (%): 70%
[1]; wheat (Table 5)
  ED90: 684
[1]; wheat (Table 6)
  ED90: 684
[1]; wheat (Table 7)
  ED90: 684
[1]; BABA 16 ppm alone (Table 4)
  Observed Control (%): 0%
[1]; BABA 62 ppm alone (Table 4)
  Observed Control (%): 8%
[1]; BABA 125 ppm alone (Table 2)
  Observed Control (%): 8%
[1]; BABA 125 ppm alone (Table 5)
  Observed Control (%): 13%
[1]; BABA 125 ppm alone (Table 6)
  Observed Control (%): 13%
[1]; BABA 125 ppm alone (Table 7)
  Observed Control (%): 13%
[1]; BABA 250 ppm alone (Table 2)
  Observed Control (%): 8%
[1]; BABA 250 ppm alone (Table 4)
  Observed Control (%): 17%
[1]; BABA 250 ppm alone (Table 5)
  Observed Control (%): 25%
[1]; BABA 250 ppm alone (Table 6)
  Observed Control (%): 25%
[1]; BABA 250 ppm alone (Table 7)
  Observed Control (%): 25%
[1]; BABA 500 ppm alone (Table 2)
  Observed Control (%): 8%
[1]; BABA 500 ppm alone (Table 5)
  Observed Control (%): 63%
[1]; BABA 500 ppm alone (Table 6)
  Observed Control (%): 63%
[1]; BABA 500 ppm alone (Table 7)
  Observed Control (%): 63%
[1]; BABA 1000 ppm alone (Table 2)
  Observed Control (%): 17%
[1]; BABA 1000 ppm alone (Table 4)
  Observed Control (%): 33%
[1]; BABA 1000 ppm alone (Table 5)
  Observed Control (%): 100%
[1]; BABA 1000 ppm alone (Table 6)
  Observed Control (%): 100%
[1]; BABA 1000 ppm alone (Table 7)
  Observed Control (%): 100%
